{"source": "patent US9260439B2", "about": "“Dihydropyrrolopyrimidine derivatives” (PFIZER INC., priority 2014, dated 2016)"}
{"target": "truncated PI3Kα (p110α/iSH2 p85α) (Homo sapiens (Human), UniProt P42336)", "sequence (P42336 whole entry, the tested form may be a part)": "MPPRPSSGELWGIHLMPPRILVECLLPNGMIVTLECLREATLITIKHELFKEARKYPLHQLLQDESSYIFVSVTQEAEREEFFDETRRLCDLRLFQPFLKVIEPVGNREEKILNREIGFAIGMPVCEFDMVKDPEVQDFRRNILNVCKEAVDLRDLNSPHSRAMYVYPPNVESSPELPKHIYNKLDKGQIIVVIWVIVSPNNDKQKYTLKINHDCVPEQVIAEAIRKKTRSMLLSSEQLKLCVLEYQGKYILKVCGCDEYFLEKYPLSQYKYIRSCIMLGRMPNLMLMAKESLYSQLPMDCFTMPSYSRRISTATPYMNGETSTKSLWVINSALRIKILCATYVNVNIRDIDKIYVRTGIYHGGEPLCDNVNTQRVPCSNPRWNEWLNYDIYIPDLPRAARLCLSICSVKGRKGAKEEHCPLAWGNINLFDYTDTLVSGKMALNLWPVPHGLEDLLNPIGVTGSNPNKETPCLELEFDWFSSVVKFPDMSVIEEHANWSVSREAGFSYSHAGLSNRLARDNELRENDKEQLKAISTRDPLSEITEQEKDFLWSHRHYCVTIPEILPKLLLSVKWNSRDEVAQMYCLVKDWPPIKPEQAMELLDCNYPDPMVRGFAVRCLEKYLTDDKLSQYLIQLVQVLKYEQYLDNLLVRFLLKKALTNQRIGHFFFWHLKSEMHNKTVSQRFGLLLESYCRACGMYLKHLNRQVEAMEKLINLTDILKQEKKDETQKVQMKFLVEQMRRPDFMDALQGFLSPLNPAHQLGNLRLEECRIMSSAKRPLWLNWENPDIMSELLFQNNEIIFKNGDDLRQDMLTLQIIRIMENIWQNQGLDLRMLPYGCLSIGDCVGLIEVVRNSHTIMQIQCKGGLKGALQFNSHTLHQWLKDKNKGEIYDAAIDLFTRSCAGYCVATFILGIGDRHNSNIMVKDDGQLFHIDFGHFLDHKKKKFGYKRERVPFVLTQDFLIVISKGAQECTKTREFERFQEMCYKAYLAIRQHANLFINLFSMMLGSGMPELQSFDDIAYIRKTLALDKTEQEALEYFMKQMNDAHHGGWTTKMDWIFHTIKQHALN", "assay": "PI3KA_Act fluorescence polarization kinase assay (Ki)", "format": "biochemical", "details": "1 mM ATP", "summary_of_the_method": "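Ki values result from fitting fluorescence polarization signals to the Morrison equation for tight-binding competitive inhibitors. The detector was GST-Grp1 PH domain with TAMRA-PIP3, read after a 30 min room-temperature reaction of 0.5 nM truncated PI3Kα and 30 μM PIP2 at pH 7.4 in HEPES/NaCl/MgCl2/DTT/CHAPS buffer. Compounds were tested as 12-point 3-fold dilutions from 3 μM.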", "units": {"PI3KA_Act Ki": "nM", "Ki": "nM"}}
{"smiles": "CC(C)(C)OC(=O)N1CCC(C)(N2CCc3c(-c4cnc(N)nc4)nc(N4CCOCC4)nc32)CC1", "note": "[Example 433, tert-butyl 4-[4-(2-aminopyrimidin-5-yl)-2-(morpholin-4-yl)-5,6-dihydro-7H-pyrrolo[2,3-d]pyrimidin-7-yl]-4-methylpiperidine-1-carboxylate]", "PI3KA_Act Ki": 0.024}
{"smiles": "CS(=O)(=O)N1C[C@H]2C[C@@]2(N2CCc3c(-c4cnc(N)nc4)nc(N4CCOCC4)nc32)C1", "note": "[Example 436, 5-{7-[(1S,5R)-3-(methylsulfonyl)-3-azabicyclo[3.1.0]hex-1-yl]-2-(morpholin-4-yl)-6,7-dihydro-5H-pyrrolo[2,3-d]pyrimidin-4-yl}pyrimidin-2-amine]", "PI3KA_Act Ki": 0.189}
{"smiles": "CS(=O)(=O)N1C[C@@H]2C[C@]2(N2CCc3c(-c4cnc(N)nc4)nc(N4CCOCC4)nc32)C1", "note": "[Example 437, 5-{7-[(1R,5S)-3-(methylsulfonyl)-3-azabicyclo[3.1.0]hex-1-yl]-2-(morpholin-4-yl)-6,7-dihydro-5H-pyrrolo[2,3-d]pyrimidin-4-yl}pyrimidin-2-amine]", "PI3KA_Act Ki": 0.603}
{"smiles": "CC(C)(C)OC(=O)N1C[C@@H]2C[C@H]1[C@H]2N1CCc2c(-c3cnc(N)nc3)nc(N3CCOCC3)nc21", "note": "[Example 438, tert-butyl (1S,4S,5S)-5-[4-(2-aminopyrimidin-5-yl)-2-(morpholin-4-yl)-5,6-dihydro-7H-pyrrolo[2,3-d]pyrimidin-7-yl]-2-azabicyclo[2.1.1] hexane-2-carboxylate]", "Ki": 7.45}
{"smiles": "CS(=O)(=O)N1C[C@@H]2C[C@H]1[C@H]2N1CCc2c(-c3cnc(N)nc3)nc(N3CCOCC3)nc21", "note": "[Example 441, 5-{7-[(1S,4S,5S)-2-(methylsulfonyl)-2-azabicyclo[2.1.1]hex-5-yl]-2-(morpholin-4-yl)-6,7-dihydro-5H-pyrrolo[2,3-d]pyrimidin-4-yl}pyrimidin-2-amine]", "Ki": 0.432}
{"smiles": "C[C@H]1COCCN1c1nc(-c2cnc(N)nc2)c2c(n1)N([C@H]1C[C@@H](N)C1)CC2.Cl", "note": "[Example 442, 5-{7-(cis-3-aminocyclobutyl)-2-[(3S)-3-methylmorpholin-4-yl]-6,7-dihydro-5H-pyrrolo[2,3-d]pyrimidin-4-yl}pyrimidin-2-amine hydrochloride]", "PI3KA_Act Ki": 1.349}
{"smiles": "C[C@H]1COCCN1c1nc(-c2cnc(N)nc2)c2c(n1)N([C@H]1C[C@H](N)C1)CC2.Cl", "note": "[Example 443, 5-{7-(trans-3-aminocyclobutyl)-2-[(3S)-3-methylmorpholin-4-yl]-6,7-dihydro-5H-pyrrolo[2,3-d]pyrimidin-4-yl}pyrimidin-2-amine hydrochloride]", "PI3KA_Act Ki": 0.944}
{"smiles": "CN[C@H]1C[C@@H](N2CCc3c(-c4cnc(N)nc4)nc(N4CCOC[C@@H]4C)nc32)C1.Cl", "note": "[Example 444, 5-{7-[cis-3-(methylamino)cyclobutyl]-2-[(3S)-3-methylmorpholin-4-yl]-6,7-dihydro-5H-pyrrolo[2,3-d]pyrimidin-4-yl}pyrimidin-2-amine hydrochloride]", "PI3KA_Act Ki": 2.125}
{"smiles": "CN[C@H]1C[C@H](N2CCc3c(-c4cnc(N)nc4)nc(N4CCOC[C@@H]4C)nc32)C1.Cl", "note": "[Example 445, 5-{7-[trans-3-(methylamino)cyclobutyl]-2-[(3S)-3-methylmorpholin-4-yl]-6,7-dihydro-5H-pyrrolo[2,3-d]pyrimidin-4-yl}pyrimidin-2-amine hydrochloride]", "PI3KA_Act Ki": 0.993}
{"smiles": "C[C@H]1COCCN1c1nc(-c2cnc(N)nc2)c2c(n1)N([C@H]1C[C@H](NC(=O)OC(C)(C)C)C1)CC2", "note": "[Example 446, tert-butyl (trans-3-{4-(2-aminopyrimidin-5-yl)-2-[(3S)-3-methylmorpholin-4-yl]-5,6-dihydro-7H-pyrrolo[2,3-d]pyrimidin-7-yl}cyclobutyl)carbamate]", "PI3KA_Act Ki": 0.433}
{"smiles": "C[C@H]1COCCN1c1nc(-c2cnc(N)nc2)c2c(n1)N([C@H]1C[C@@H](NC(=O)OC(C)(C)C)C1)CC2", "note": "[Example 447, tert-butyl (cis-3-{4-(2-aminopyrimidin-5-yl)-2-[(3S)-3-methylmorpholin-4-yl]-5,6-dihydro-7H-pyrrolo[2,3-d]pyrimidin-7-yl}cyclobutyl)carbamate]", "PI3KA_Act Ki": 0.644}
{"smiles": "C[C@H]1COCCN1c1nc(-c2cnc(N)nc2)c2c(n1)N(C1(C)CNC1)CC2.Cl", "note": "[Example 450, 5-{7-(3-methylazetidin-3-yl)-2-[(3S)-3-methylmorpholin-4-yl]-6,7-dihydro-5H-pyrrolo[2,3-d]pyrimidin-4-yl}pyrimidin-2-amine hydrochloride]", "PI3KA_Act Ki": 0.167}
{"smiles": "CC(=O)N1CC(N2CCc3c(-c4cnc(N)nc4)nc(N4CCOC[C@@H]4C)nc32)C1", "note": "[Example 451, 1-(3-{4-(2-aminopyrimidin-5-yl)-2-[(3S)-3-methylmorpholin-4-yl]-5,6-dihydro-7H-pyrrolo[2,3-d]pyrimidin-7-yl}azetidin-1-yl)ethanone]", "PI3KA_Act Ki": 0.595}
{"smiles": "CC(=O)N1CC(C)(N2CCc3c(-c4cnc(N)nc4)nc(N4CCOC[C@@H]4C)nc32)C1", "note": "[Example 452, 1-(3-{4-(2-aminopyrimidin-5-yl)-2-[(3S)-3-methylmorpholin-4-yl]-5,6-dihydro-7H-pyrrolo[2,3-d]pyrimidin-7-yl}-3-methylazetidin-1-yl)ethanone]", "PI3KA_Act Ki": 0.090}
{"smiles": "CC(C)C(=O)N1CC(N2CCc3c(-c4cnc(N)nc4)nc(N4CCOC[C@@H]4C)nc32)C1", "note": "[Example 453, 1-(3-{4-(2-aminopyrimidin-5-yl)-2-[(3S)-3-methylmorpholin-4-yl]-5,6-dihydro-7H-pyrrolo[2,3-d]pyrimidin-7-yl}azetidin-1-yl)-2-methylpropan-1-one]", "PI3KA_Act Ki": 0.973}
{"smiles": "C[C@H]1COCCN1c1nc(-c2cnc(N)nc2)c2c(n1)N(C1CN(C(=O)C(C)(C)O)C1)CC2", "note": "[Example 454, 1-(3-{4-(2-aminopyrimidin-5-yl)-2-[(3S)-3-methylmorpholin-4-yl]-5,6-dihydro-7H-pyrrolo[2,3-d]pyrimidin-7-yl}azetidin-1-yl)-2-hydroxy-2-methylpropan-1-one]", "PI3KA_Act Ki": 0.387}
{"smiles": "C[C@H]1COCCN1c1nc(-c2cnc(N)nc2)c2c(n1)N(C1(C)CN(C(=O)C(C)(C)O)C1)CC2", "note": "[Example 455, 1-(3-{4-(2-aminopyrimidin-5-yl)-2-[(3S)-3-methylmorpholin-4-yl]-5,6-dihydro-7H-pyrrolo[2,3-d]pyrimidin-7-yl}-3-methylazetidin-1-yl)-2-hydroxy-2-methylpropan-1-one]", "PI3KA_Act Ki": 0.187}
{"smiles": "C[C@H]1COCCN1c1nc(-c2cnc(N)nc2)c2c(n1)N(C1(C)CN(C(=O)C(C)(C)N)C1)CC2.Cl", "note": "[Example 456, 2-amino-1-(3-{4-(2-aminopyrimidin-5-yl)-2-[(3S)-3-methylmorpholin-4-yl]-5,6-dihydro-7H-pyrrolo[2,3-d]pyrimidin-7-yl}-3-methylazetidin-1-yl)-2-methylpropan-1-one hydrochloride]", "PI3KA_Act Ki": 0.063}
{"smiles": "CCC(=O)NCC(=O)N1CC(N2CCc3c(-c4cnc(N)nc4)nc(N4CCOC[C@@H]4C)nc32)C1", "note": "[Example 457, N-[2-(3-{4-(2-aminopyrimidin-5-yl)-2-[(3S)-3-methylmorpholin-4-yl]-5,6-dihydro-7H-pyrrolo[2,3-d]pyrimidin-7-yl}azetidin-1-yl)-2-oxoethyl]propanamide]", "PI3KA_Act Ki": 0.691}
